Drawing on patent publication US10538555B2, “Macrocyclic inhibitors of the PD-1/PD-L1 and CD80(B7-1)/PD-L1 protein/protein interactions” (BRISTOL-MYERS SQUIBB COMPANY, priority 2014, dated 2020), this text covers IC50 for eleven compounds.

*1 amine or outer side, *2 acyl side, *3 side chain or, on linkers, in order; H or OH if unused. Where a SMILES comes first, the peptide text is derived from it. Bridges are numbered along the chain shown (N, C = ends). [ ]: non-standard residue; d: D form. ξ: configuration not given here. Phe(3,4,5-F3) = N[C@@H](Cc1cc(F)c(F)c(F)c1)C(=O)O; NMePhe(4-F) = CN[C@@H](Cc1ccc(F)cc1)C(=O)O; Phe(4-Cl) = N[C@@H](Cc1ccc(Cl)cc1)C(=O)O; Phe(4-F) = N[C@@H](Cc1ccc(F)cc1)C(=O)O; d(cisHyp) = O=C(O)[C@H]1C[C@@H](O)CN1; Bta = N[C@@H](Cc1csc2ccccc12)C(=O)O; NMeY = CN[C@@H](Cc1ccc(O)cc1)C(=O)O; Hyp = O=C(O)[C@@H]1C[C@@H](O)CN1; NMeF = CN[C@@H](Cc1ccccc1)C(=O)O; X1 = O=C([C@H]1COCCN1[*:1])[*:2]; Cha = N[C@@H](CC1CCCCC1)C(=O)O; NMehSer = CN[C@@H](CCO)C(=O)O; NMeNle = CCCC[C@H](NC)C(=O)O; dPip = O=C(O)[C@H]1CCCCN1; hSer = N[C@@H](CCO)C(=O)O; NMeA = CN[C@@H](C)C(=O)O; Orn = NCCC[C@H](N)C(=O)O; Dab = NCC[C@H](N)C(=O)O; Dap = NC[C@H](N)C(=O)O; ξC = NC(CS)C(=O)O; Sar = CNCC(=O)O

The target of one test is T1, Human PD-L1/PD-1 (Homo sapiens, UniProt Q9NZQ7).
T1 construct: TVMV protease cleavage site (C); made in house; host or cells: HEK293T cells
T1 sequence (Q9NZQ7 with tags, fused parts or gaps): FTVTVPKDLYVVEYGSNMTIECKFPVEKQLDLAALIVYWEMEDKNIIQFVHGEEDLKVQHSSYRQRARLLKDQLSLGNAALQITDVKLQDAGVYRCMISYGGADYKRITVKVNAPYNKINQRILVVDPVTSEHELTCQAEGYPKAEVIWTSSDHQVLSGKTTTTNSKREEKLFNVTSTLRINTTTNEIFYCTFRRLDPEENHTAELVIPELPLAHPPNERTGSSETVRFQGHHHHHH
Nature of the test: HTRF Human PD-L1/PD-1 binding assay (PD-1-Ig/PD-L1-His). The note with it: PD-L1-His 10 nM, PD-1-Ig 20 nM; class symbol; read-out: HTRF Human PD-L1/PD-1 Binding Assay IC50 Range. The procedure, abridged: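 HTRF competition using HEK293T-expressed human PD-1(25-167)-Ig at 20 nM and PD-L1(18-239)-His at 10 nM, compound incubated first with PD-L1 for 15 min, then with PD-1 for 15 min. Signal read as 665/620 nm ratio 30 min after adding Eu anti-Ig and APC anti-His antibodies.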
On the technique in general: In TR-FRET formats the signal depends on donor and acceptor labels being close together.
Consider `CCCC[C@H]1C(=O)N(C)[C@@H](CCCC)C(=O)N[C@@H](CCCNC(=N)N)C(=O)NC(C(=O)NCC(N)=O)CSCC(=O)N[C@@H](Cc2ccc(O)cc2)C(=O)N(C)[C@@H](C)C(=O)N[C@@H](CC(N)=O)C(=O)N2CCC[C@H]2C(=O)N[C@@H](CO)C(=O)N[C@@H](CO)C(=O)N2CCC[C@H]2C(=O)N[C@@H](Cc2c[nH]c3ccccc23)C(=O)N[C@@H](CO)C(=O)N[C@@H](Cc2c[nH]c3ccccc23)C(=O)N1C` (some centres unmarked) [Example 10017] ({CH2CO}-Y[NMeA]NPSSPWSW[NMeNle][NMeNle]R[ξC]G-NH2; thioether N-14), for which the IC50 was 10 to 99.9 nM. Same read-out and setting: next, `CCCC[C@H]1C(=O)N2C[C@H](O)C[C@@H]2C(=O)N[C@@H](CC(=O)O)C(=O)N[C@@H](C(C)C)C(=O)N(C)[C@@H](Cc2ccccc2)C(=O)N[C@@H](CCCN)C(=O)N2CCC[C@@H]2C(=O)N[C@@H](Cc2c[nH]c3ccccc23)C(=O)N[C@@H](Cc2ccc(O)cc2)C(=O)N[C@@H](CCO)C(=O)N[C@H](C(=O)NCC(N)=O)CSCC(=O)N[C@@H](Cc2cc(F)c(F)c(F)c2)C(=O)N(C)[C@@H](Cc2ccccc2)C(=O)N1C` [Example 10152] ({CH2CO}-[Phe(3,4,5-F3)][NMeF][NMeNle][d(cisHyp)]DV[NMeF][Orn][dP]WY[hSer]CG-NH2; thioether N-13): 1 to 9.9 nM; `CCCC[C@H]1C(=O)N(C)[C@@H](CCCC)C(=O)N[C@@H](CCCNC(=N)N)C(=O)N[C@H](C(=O)NCC(N)=O)CSCC(=O)N[C@@H](Cc2ccc(Cl)cc2)C(=O)N(C)[C@@H](C)C(=O)N[C@@H](CC(N)=O)C(=O)N2CCC[C@H]2C(=O)N[C@@H](Cc2cnc[nH]2)C(=O)N[C@@H](CCC(=O)O)C(=O)N2C[C@H](O)C[C@H]2C(=O)N[C@@H](Cc2c[nH]c3ccccc23)C(=O)N[C@@H](CO)C(=O)N[C@@H](Cc2c[nH]c3ccccc23)C(=O)N1C` [Example 7080] ({CH2CO}-[Phe(4-Cl)][NMeA]NPHE[Hyp]WSW[NMeNle][NMeNle]RCG-NH2; thioether N-14): 10 to 99.9 nM; `CCCC[C@H]1C(=O)N(C)[C@@H](CCCC)C(=O)N[C@@H](CCCN)C(=O)N[C@H](C(=O)NCC(N)=O)CSCC(=O)N[C@@H](Cc2ccc(OC)cc2)C(=O)N(C)[C@@H](C)C(=O)N[C@@H](CC(=O)O)C(=O)N2CCC[C@H]2C(=O)N[C@@H](CN)C(=O)N[C@@H](CCC(=O)O)C(=O)N2C[C@H](O)C[C@H]2C(=O)N[C@@H](Cc2c[nH]c3ccccc23)C(=O)N[C@@H](CC(=O)O)C(=O)N[C@@H](Cc2c[nH]c3ccccc23)C(=O)N1C` [Example 7101] ({CH2CO}-Y(Me)[NMeA]DP[Dap]E[Hyp]WDW[NMeNle][NMeNle][Orn]CG-NH2; thioether N-14): 1 to 9.9 nM. Still for that read-out and setting: as for `CCCC[C@H]1C(=O)N(C)[C@@H](CCCC)C(=O)N[C@@H](CC(C)C)C(=O)N[C@H](C(=O)NCC(N)=O)CSCC(=O)N[C@@H](Cc2ccc(O)cc2)C(=O)N(C)[C@@H](C)C(=O)N[C@@H](CC(N)=O)C(=O)N2CCC[C@H]2C(=O)N[C@@H](Cc2c[nH]cn2)C(=O)N[C@@H](CCC(=O)O)C(=O)N2C[C@H](O)C[C@H]2C(=O)N[C@@H](Cc2c[nH]c3ccccc23)C(=O)N[C@H](C)C(=O)N[C@@H](Cc2csc3ccccc23)C(=O)N1C` [Example 5169] ({CH2CO}-Y[NMeA]NPHE[Hyp]W[dA][Bta][NMeNle][NMeNle]LCG-NH2; thioether N-14), the figure is 1 to 9.9 nM. Turning to `CCCC[C@H]1C(=O)N2C[C@H](O)C[C@@H]2C(=O)N[C@@H](CC(=O)O)C(=O)N[C@@H](C(C)C)C(=O)N(C)[C@@H](Cc2ccccc2)C(=O)N[C@@H](CCC(=O)O)C(=O)N2CCOC[C@@H]2C(=O)N[C@@H](Cc2c[nH]c3ccccc23)C(=O)N[C@@H](Cc2ccc(O)cc2)C(=O)N[C@@H](CCC(N)=O)C(=O)N[C@H](C(=O)NCC(N)=O)CSCC(=O)N[C@@H](Cc2cc(F)c(F)c(F)c2)C(=O)N(C)[C@@H](Cc2ccc(F)cc2)C(=O)N1C` [Example 10595] ({CH2CO}-[Phe(3,4,5-F3)][NMePhe(4-F)][NMeNle][d(cisHyp)]DV[NMeF]E[X1]WYQCG-NH2; thioether N-13), the IC50 is 1 to 9.9 nM. Turning to `CCCC[C@H]1C(=O)N(C)CC(=O)N[C@@H](CC(=O)O)C(=O)N[C@@H](C(C)C)C(=O)N(C)[C@@H](Cc2ccccc2)C(=O)N[C@@H](Cc2ccc(O)cc2)C(=O)N(C)CC(=O)N[C@@H](Cc2c[nH]c3ccccc23)C(=O)N[C@@H](Cc2ccc(O)cc2)C(=O)N[C@@H](CC(C)C)C(=O)N[C@H](C(=O)NCC(N)=O)CSCC(=O)N[C@@H](CC2CCCCC2)C(=O)N(C)[C@@H](Cc2ccccc2)C(=O)N1C` [Example 3238] ({CH2CO}-[Cha][NMeF][NMeNle][Sar]DV[NMeF]Y[Sar]WYLCG-NH2; thioether N-13), the IC50 lay in the range of 100 to 990 nM. Same read-out and setting: as for `CCCC[C@H]1C(=O)N2CCC[C@@H]2C(=O)N[C@@H](CC(=O)O)C(=O)N[C@@H](C(C)C)C(=O)N(C)[C@@H](Cc2ccccc2)C(=O)N[C@@H](CCN)C(=O)N2CCOC[C@@H]2C(=O)N[C@@H](Cc2c[nH]c3ccccc23)C(=O)N[C@@H](Cc2ccc(O)cc2)C(=O)N[C@@H](CCC(N)=O)C(=O)N[C@H](C(=O)NCC(N)=O)CSCC(=O)N[C@@H](Cc2cc(F)c(F)c(F)c2)C(=O)N(C)[C@@H](Cc2ccc(O)cc2)C(=O)N1C` [Example 10626] ({CH2CO}-[Phe(3,4,5-F3)][NMeY][NMeNle][dP]DV[NMeF][Dab][X1]WYQCG-NH2; thioether N-13), the figure is 10 to 99.9 nM; as for `CCCC[C@H]1C(=O)N(C)[C@@H](CCCC)C(=O)N[C@@H](CCC(=O)O)C(=O)N[C@H](C(=O)NCC(N)=O)CSCC(=O)N[C@@H](Cc2ccc(O)cc2)C(=O)N(C)[C@@H](C)C(=O)N[C@@H](CC(N)=O)C(=O)N2CCC[C@H]2C(=O)N[C@@H](CO)C(=O)N[C@@H](CCC(=O)O)C(=O)N2C[C@H](O)C[C@H]2C(=O)N[C@@H](Cc2c[nH]c3ccccc23)C(=O)N[C@@H](CCC(=O)O)C(=O)N[C@@H](Cc2c[nH]c3ccccc23)C(=O)N1C` [Example 5196] ({CH2CO}-Y[NMeA]NPSE[Hyp]WEW[NMeNle][NMeNle]ECG-NH2; thioether N-14), 1 to 9.9 nM.

Staying with this test, now noted: PD-L1-His 10 nM, PD-1-Ig 20 nM; read-out: HTRF Human PD-L1/PD-1 Binding Assay IC50.
In the case of `CCCC[C@H]1C(=O)N2CCC[C@@H]2C(=O)N[C@@H](CC(=O)O)C(=O)N[C@@H](C(C)C)C(=O)N(C)[C@@H](CCOC)C(=O)N[C@@H](Cc2ccc(O)cc2)C(=O)N2CCCC[C@@H]2C(=O)N[C@@H](Cc2c[nH]c3ccccc23)C(=O)N[C@@H](Cc2ccc(O)cc2)C(=O)N[C@@H](CCCN)C(=O)N[C@H](C(=O)NCC(N)=O)CSCC(=O)N[C@@H](Cc2ccc(F)cc2)C(=O)N(C)[C@@H](Cc2ccccc2)C(=O)N1C` [Example 9222] ({CH2CO}-[Phe(4-F)][NMeF][NMeNle][dP]DV[NMehSer](Me)Y[dPip]WY[Orn]CG-NH2; thioether N-13), the IC50 amounted to 144 nM.

In the case of `CCCC[C@H]1C(=O)N(C)CC(=O)N[C@@H](CC(=O)O)C(=O)N[C@@H](C(C)C)C(=O)N[C@@H](Cc2c[nH]c3ccccc23)C(=O)N[C@@H](Cc2c[nH]c3ccccc23)C(=O)N(C)CC(=O)N[C@@H](Cc2c[nH]c3ccccc23)C(=O)N[C@@H](Cc2ccc(O)cc2)C(=O)N[C@@H](CC(C)C)C(=O)N[C@H](C(=O)NCC(N)=O)CSCC(=O)N[C@@H](Cc2ccccc2)C(=O)N(C)[C@@H](Cc2ccccc2)C(=O)N1C` [Example 3234] ({CH2CO}-F[NMeF][NMeNle][Sar]DVWW[Sar]WYLCG-NH2; thioether N-13), the IC50 stood at 10000 nM.
